# Like-named read-outs stand apart in the source and are kept apart here.
# Columns and labels:
# [1] = Headspace Method (dynamic headspace GC/MS), solution in isopropyl myristate (IPM); format: physicochemical; conditions: for Air/IPM partition coef (ng/mL in air per ng/mL in IPM) / Headspace: 30° C.; for Headspace: above IPM solution of about 2.1E+06 ng/mL
# Method: (§1) Perfume headspace data is collected for various materials according to the method provided below.
# (§2) The partition coefficients are calculated by determining the amount of PRM in the headspace above a solution with a known concentration using a GC/FID-MS (Agilent 7890 and 5977A MSD) with a thermal desorption unit (Gerstel MPS2) and Dynamic Headspace Sampler (Gerstel DHS). This technique allows for automated headspace collections using the MultiPurposeSampler (MPS). The PRMs of interest are prepared at a known concentration in isopropyl myristate (IPM) or propylene glycol monomethyl ether (DPM), and 1 mL is pipetted in a 20 mL headspace vial.
# (§3) DHS Conditions: The sample is tempered in the unit at 30° C. A helium stream at 10 mls/min purges 20 mL of headspace containing the analytes above the sample onto the sorbent tube (TDU) containing 25 mg of TenaxTA 35/60 (Restek cat #25701).
# (§4) TDU conditions: The sorbent tube is desorbed with a program starting at 30° C. solvent vent for 2 min then ramped at 720° C./min to 270° C. and held for 8 min. The analytes are refocused on a glass bead liner at −60° C. then desorbed at a rate of 12° C./s to 270° C. onto the GC column.
# (§5) GC/MS conditions: Agilent 122-5532UI column of 30 m×250 μm×0.25 μm and a flow rate of 1.5mL/min is utilized. A temperature program of 50° C. to 280° C. with a 2 min hold and a ramp rate of 12° C./min is suitable. Scan or SIM mode MSD parameters with a solvent delay for the DPM are applied to achieve appropriate detection.
# (§6) Analytical standards can be obtained from Sigma Aldrich, St. Louis, MO and BioSynth, UK. A stock solution is prepared at approximately 0.5 g/L. The stock solution is then diluted to 4 to 5 concentrations ranging from approximately 0.05 g/L to 0.00005 g/L. These standard solutions are then analyzed by GC/MS. This analysis is performed by using the same TDU desorption and GC/MS conditions described above with a 1 uL liquid injection onto the TDU tube instead of the DHS collection. The amount injected on column and the area responses of the target m/z are utilized to create a calibration plot with a linear fit.
# (§7) Quantification of the headspace is performed by the PRM target m/z area response of the perfume component and the linear equation of the calibration plot.
# (§8) Perfume headspace data is collected for various materials according to the Headspace Method provided above in the Test Methods section. The Air/Solvent partition coefficients are determined and indexed accordingly (e.g., where the partition coefficient for ethylvanillin is set at 1.00).
# [2] = Headspace Method (dynamic headspace GC/MS), solution in propylene glycol monomethyl ether (DPM); format: physicochemical; conditions: for Air/DPM partition coef (ng/mL in air per ng/mL in DPM) / Headspace: 30° C.; for Headspace: above DPM solution of 1.1E+07 ng/mL
# Method: as §1, §2, §3, §4, §5, §6, §7, §8
Air/IPM partition coef (ng/mL in air per ng/mL in IPM) ([1]; average of two replicates),Headspace ([1]; average of two replicates) [ng/mL],Air/DPM partition coef (ng/mL in air per ng/mL in DPM) ([2]; average of three replicates),Headspace ([2]; average of three replicates) [ng/mL],Ethylvanillin Indexed Air/IPM partition coefficient [1],goes into the headspace more than its structural isomer ethylvanillin ([1]; out of IPM),goes into the headspace more than ethylvanillin ([2]; out of DPM),Compound,"Ethylvanillin Indexed Air/IPM partition coefficient ([1]; partition coefficient for ethylvanillin set at 1.00, average of two replicates)","Ethylvanillin Indexed Air/DPM partition coefficient ([2]; partition coefficient for ethylvanillin set at 1.00, average of three replicates)"
2.73E−08 ng/mL in air per ng/mL in IPM,0.0563,1.21E−08 ng/mL in air per ng/mL in DPM,0.1288,1.40,–,–,COc1cc(C=O)ccc1O [Vanillin],–,–
1.21E−07 ng/mL in air per ng/mL in IPM,0.2521,2.31E−07 ng/mL in air per ng/mL in DPM,2.4678,–,about 6.2 ×,about 94 ×,"CCOc1cccc(C=O)c1O [ortho-Ethylvanillin, 2-hydroxy-3-ethoxybenzaldehyde]",–,–

Compound,Air/IPM partition coef (ng/mL in air per ng/mL in IPM) ([1]; average of two replicates),Headspace ([1]; average of two replicates) [ng/mL],Air/DPM partition coef (ng/mL in air per ng/mL in DPM) ([2]; average of three replicates),Headspace ([2]; average of three replicates) [ng/mL],Ethylvanillin Indexed Air/IPM partition coefficient [1],goes into the headspace more than its structural isomer ethylvanillin ([1]; out of IPM),goes into the headspace more than ethylvanillin ([2]; out of DPM),"Ethylvanillin Indexed Air/IPM partition coefficient ([1]; partition coefficient for ethylvanillin set at 1.00, average of two replicates)","Ethylvanillin Indexed Air/DPM partition coefficient ([2]; partition coefficient for ethylvanillin set at 1.00, average of three replicates)"
CCOc1cc(C=O)ccc1O [Ethylvanillin],1.95E−08 ng/mL in air per ng/mL in IPM,0.0402,2.45E−09 ng/mL in air per ng/mL in DPM,0.0262,–,–,–,1.00,1.00

# Reference: patent US20240199997A1, “COMPOSITIONS COMPRISING A META-(C1-C4 ALKOXY) […]” (The Procter & Gamble Company, priority 2022, published 2024)
